Assay results taken from the NIST ThermoML archive (doi:10.1016/j.jct.2016.09.041).
Numbers after ± are expanded uncertainties.

Test: molar heat capacity at constant pressure
Settings: 101.33 kPa, Crystal 1, Small (less than 1 g) adiabatic calorimetry

N[C@@H](Cc1c[nH]c2ccccc12)C(=O)O [L-tryptophan]
Settings	molar heat capacity at constant pressure [J/K/mol]
124.29 K	103.18 ± 0.58
125.09 K	103.85 ± 0.58
125.89 K	104.51 ± 0.58
126.7 K	105.01 ± 0.58
127.5 K	105.51 ± 0.58
128.3 K	106.18 ± 0.58
129.1 K	106.67 ± 0.58
129.91 K	107.26 ± 0.58
130 K	107.26 ± 0.67
130.71 K	107.84 ± 0.58
131.51 K	108.34 ± 0.67
132.31 K	108.75 ± 0.67
133.12 K	109.25 ± 0.67
133.92 K	109.67 ± 0.67
134.72 K	110.5 ± 0.67
135.52 K	111.08 ± 0.67
136.33 K	111.66 ± 0.67
137.13 K	112.16 ± 0.67
137.93 K	112.74 ± 0.67
138.74 K	113.33 ± 0.67
139.54 K	113.83 ± 0.67
140 K	114.16 ± 0.67
140.34 K	114.32 ± 0.67
141.14 K	114.74 ± 0.67
141.95 K	115.49 ± 0.67
142.75 K	116.07 ± 0.67
143.55 K	116.57 ± 0.67
144.35 K	117.23 ± 0.67
145.16 K	117.65 ± 0.67
145.96 K	118.31 ± 0.67
146.76 K	118.73 ± 0.67
147.56 K	119.31 ± 0.67
148.37 K	119.81 ± 0.67
149.17 K	120.64 ± 0.67
149.97 K	121.14 ± 0.67
150 K	121.06 ± 0.67
150.77 K	121.56 ± 0.67
151.57 K	122.22 ± 0.67
152.38 K	122.97 ± 0.67
153.18 K	123.22 ± 0.67
153.98 K	123.64 ± 0.67
154.78 K	124.55 ± 0.67
155.58 K	124.8 ± 0.67
156.38 K	125.55 ± 0.75
157.18 K	126.13 ± 0.75
157.98 K	126.46 ± 0.75
158.79 K	127.46 ± 0.75
159.59 K	127.96 ± 0.75
160 K	128.04 ± 0.75
160.39 K	128.13 ± 0.75
161.19 K	128.96 ± 0.75
161.99 K	129.62 ± 0.75
162.79 K	130.2 ± 0.75
163.59 K	130.79 ± 0.75
164.39 K	131.29 ± 0.75
165.19 K	131.7 ± 0.75
166 K	131.95 ± 0.75
166.8 K	132.7 ± 0.75
167.6 K	133.45 ± 0.75
168.39 K	134.03 ± 0.75
169.19 K	134.61 ± 0.75
169.99 K	135.19 ± 0.75
170 K	135.03 ± 0.75
170.79 K	135.61 ± 0.75
171.59 K	136.19 ± 0.75
172.39 K	136.52 ± 0.75
173.19 K	137.11 ± 0.75
173.99 K	137.6 ± 0.75
174.79 K	138.1 ± 0.75
175.59 K	138.77 ± 0.75
176.39 K	139.18 ± 0.75
177.19 K	140.1 ± 0.75
177.99 K	140.51 ± 0.75
178.79 K	141.01 ± 0.75
179.59 K	141.6 ± 0.75
180 K	141.93 ± 0.75
180.38 K	142.09 ± 0.75
181.18 K	142.68 ± 0.83
181.97 K	143.34 ± 0.83
182.76 K	143.84 ± 0.83
183.57 K	144.59 ± 0.83
184.36 K	144.92 ± 0.83
185.16 K	145.59 ± 0.83
185.96 K	146.17 ± 0.83
186.75 K	146.67 ± 0.83
187.55 K	147.25 ± 0.83
188.34 K	147.67 ± 0.83
189.14 K	148.5 ± 0.83
189.93 K	149.16 ± 0.83
190 K	148.91 ± 0.83
190.73 K	149.58 ± 0.83
191.53 K	149.91 ± 0.83
192.32 K	150.49 ± 0.83
193.12 K	151.07 ± 0.83
193.9 K	151.91 ± 0.83
194.7 K	152.4 ± 0.83
195.49 K	152.82 ± 0.83
196.29 K	153.24 ± 0.83
197.08 K	153.82 ± 0.83
197.87 K	154.4 ± 0.83
198.67 K	155.23 ± 0.83
199.46 K	155.65 ± 0.83
200 K	156.06 ± 0.91
200.26 K	156.31 ± 0.83
201.25 K	156.89 ± 0.83
202.45 K	157.81 ± 0.83
203.66 K	158.64 ± 0.83
204.86 K	159.55 ± 0.83
206.06 K	160.3 ± 0.91
207.27 K	161.3 ± 0.91
208.48 K	162.22 ± 0.91
209.68 K	162.96 ± 0.91
210 K	163.21 ± 0.91
210.89 K	163.88 ± 0.91
212.09 K	164.54 ± 0.91
213.3 K	165.54 ± 0.91
214.51 K	166.21 ± 0.91
215.73 K	166.95 ± 0.91
216.93 K	167.95 ± 0.91
218.14 K	169.28 ± 0.91
219.36 K	170.2 ± 0.91
220 K	170.28 ± 0.91
220.57 K	170.86 ± 0.91
221.79 K	171.61 ± 0.91
223 K	172.77 ± 0.91
224.22 K	173.69 ± 0.91
225.43 K	174.11 ± 0.91
226.65 K	175.1 ± 0.91
227.87 K	176.35 ± 0.91
229.09 K	177.18 ± 1
230 K	177.76 ± 0.91
230.31 K	178.01 ± 1
231.54 K	179.09 ± 1
232.76 K	179.76 ± 1
233.98 K	180.59 ± 1
235.21 K	181.67 ± 1
236.43 K	182.75 ± 1
237.66 K	183.67 ± 1
238.88 K	184.5 ± 1
240 K	185.25 ± 0.91
240.11 K	185.41 ± 1
241.34 K	186.24 ± 1
242.57 K	187.33 ± 1
243.8 K	188.07 ± 1
245.03 K	188.74 ± 1
246.26 K	190.07 ± 1
247.5 K	190.82 ± 1
248.75 K	191.98 ± 1
249.99 K	192.56 ± 1
250 K	192.81 ± 1.1
251.23 K	193.73 ± 1
252.46 K	194.81 ± 1.1
253.7 K	195.72 ± 1.1
254.94 K	196.72 ± 1.1
256.18 K	197.63 ± 1.1
257.43 K	198.47 ± 1.1
258.67 K	199.3 ± 1.1
259.92 K	200.3 ± 1.1
260 K	200.38 ± 1.1
261.16 K	201.13 ± 1.1
262.41 K	202.04 ± 1.1
263.66 K	203.04 ± 1.1
264.91 K	204.12 ± 1.1
266.17 K	204.87 ± 1.1
267.42 K	206.03 ± 1.1
268.69 K	207.2 ± 1.1
269.95 K	208.19 ± 1.1
270 K	208.03 ± 1.1
271.21 K	208.86 ± 1.1
272.47 K	210.02 ± 1.1
273.73 K	210.77 ± 1.1
274.99 K	211.6 ± 1.2
276.25 K	212.93 ± 1.2
277.51 K	213.85 ± 1.2
278.78 K	214.51 ± 1.2
280 K	215.76 ± 1.1
280.05 K	215.84 ± 1.2
281.32 K	216.76 ± 1.2
282.59 K	217.42 ± 1.2
283.86 K	218.5 ± 1.2
285.13 K	219.83 ± 1.2
286.41 K	220.17 ± 1.2
287.69 K	221.58 ± 1.2
288.96 K	222.74 ± 1.2
290 K	223.83 ± 1.2
290.24 K	223.49 ± 1.2
291.52 K	224.57 ± 1.2
292.8 K	225.16 ± 1.2
294.08 K	226.4 ± 1.2
295.36 K	227.48 ± 1.2
296.65 K	227.73 ± 1.2
297.93 K	228.9 ± 1.2
298.15 K	228.98 ± 1.2
299.23 K	229.65 ± 1.2
300 K	230.31 ± 1.2
300.76 K	230.56 ± 1.2
302.42 K	231.39 ± 1.2
304.07 K	232.81 ± 1.2
305.72 K	234.22 ± 1.2
307.35 K	235.3 ± 1.2
308.99 K	236.3 ± 1.2
310 K	237.05 ± 1.2
310.61 K	237.38 ± 1.2
312.22 K	239.21 ± 1.2
313.83 K	240.04 ± 1.2
315.43 K	240.54 ± 1.2
317.02 K	241.62 ± 1.2
318.6 K	242.87 ± 1.2
320 K	243.61 ± 1.3
320.17 K	243.78 ± 1.2
321.71 K	244.28 ± 1.2
323.27 K	246.27 ± 1.3
324.81 K	246.94 ± 1.3
326.3 K	247.85 ± 1.3
327.82 K	248.94 ± 1.3
329.34 K	250.02 ± 1.3
330 K	250.52 ± 1.3
330.82 K	251.18 ± 1.3
332.31 K	252.43 ± 1.3
333.79 K	253.51 ± 1.3
335.26 K	254.09 ± 1.3
336.72 K	255.17 ± 1.3
338.17 K	256.67 ± 1.3
339.59 K	256.42 ± 1.3
340 K	258 ± 1.3
341.01 K	258.66 ± 1.3
342.42 K	259.91 ± 1.3
343.82 K	260.91 ± 1.3
345.21 K	262.16 ± 1.4
346.6 K	263.24 ± 1.4
347.91 K	263.9 ± 1.4
349.09 K	265.81 ± 1.4
350 K	265.98 ± 1.3
350.43 K	266.89 ± 1.4
351.76 K	268.06 ± 1.4
353.08 K	269.06 ± 1.4
354.39 K	269.47 ± 1.4
355.67 K	270.14 ± 1.4
356.94 K	271.3 ± 1.4
358.2 K	272.71 ± 1.4
359.46 K	273.55 ± 1.4
360 K	273.71 ± 1.5
360.69 K	274.04 ± 1.4
361.93 K	275.13 ± 1.4
363.07 K	275.87 ± 1.4
364.26 K	276.54 ± 1.4
365.45 K	277.29 ± 1.4
366.62 K	277.95 ± 1.4
367.71 K	277.87 ± 1.4
368.55 K	278.87 ± 1.4
369.68 K	279.87 ± 1.5
370 K	279.62 ± 1.5
370.81 K	278.62 ± 1.4
371.9 K	280.61 ± 1.5
372.99 K	281.53 ± 1.5
